# Source: patent US20100233194A1, “TREATMENT OF NEOVASCULAR OCULAR DISEASE STATES” (priority 2007, published 2010)
# Test system: VEGF-induced retinal vascular leakage
# Assay: VEGF-induced vascular leakage in a rabbit model of blood-retinal barrier breakdown (ocular fluorophotometry)
# Settings: for Inhibition of retinal vascular leakage: single intravitreal injection Day 0, 500 ng rhVEGF165 Day 5, fluorophotometry Day 7, rabbit
compound,measurement,setting,value
"CC1(C)O[C@@H]2C[C@H]3[C@@H]4CCC5=CC(=O)C=C[C@]5(C)[C@@]4(F)[C@@H](O)C[C@]3(C)[C@]2(C(=O)CO)O1 [TA, triamcinolone acetonide]",Inhibition of retinal vascular leakage,TA 75 μg,13%
same,Inhibition of retinal vascular leakage,TA 400 μg,96%
same,inhibition of the VEGF-induced retinal vascular leakage,"separate study, TA 75 μg alone",10%
